Measurements reported in patent US10392383B2, “3-(1H-benzo[d]imidazol-2-yl)-1H-pyrazolo[4,3-b]pyridines and therapeutic uses thereof” (Samumed, LLC, priority 2015, dated 2019).
pEC50: −log10 of the molar value.

Columns and labels:
Format in all cases: cell-based
[1] = system: primary human fibroblasts derived from IPF patients (LL29 cells) treated with TGF-β1; test: Inhibition of the fibrotic process: αSMA staining in TGF-β1-treated LL29 fibroblasts; conditions: Fibroblast; for pEC50: 96 h, LL29 fibroblasts treated with TGF-β1 (20 ng/mL), 4 days, Table 4; for inhibition at 10 µM: LL29 fibroblasts treated with TGF-β1, Table 4, read-out: percent inhibition at 10 μM (given in parentheses for EC50 >10 μM)
Description: Representative compounds were screened using primary human fibroblasts (derived from IPF patients) treated with TGF-β1 to determine their ability to inhibit the fibrotic process.
Human Fibroblast Cell Culture: Primary human fibroblasts derived from IPF patients (LL29 cells) [^1Xiaoqiu Liu, et. al., “Fibrotic Lung Fibroblasts Show Blunted Inhibition by cAMP Due to Deficient cAMP Response Element-Binding Protein Phosphorylation”, Journal of Pharmacology and Experimental Therapeutics (2005), 315(2), 678-687; ^2Watts, K. L., et. al., “RhoA signaling modulates cyclin D1 expression in human lung fibroblasts; implications for idiopathic pulmonary fibrosis”, Respiratory Research (2006), 7(1), 88] were obtained from American Type Culture Collection (ATCC) and expanded in F12 medium supplemented with 15% Fetal Bovine Serum and Penicillin/Streptomycin.
Compound Screening: Each compound was dissolved in DMSO as a 10 mM stock and used to prepare compound source plates. Serial dilution (1:2, 11-point dose-response curves from 10 μM to […]) and compound transfer was performed using the ECHO 550 (Labcyte, Sunnyvale, Calif.) into 384-well clear bottom assay plates (Greiner Bio-One) with appropriate DMSO backfill for a final DMSO concentration of 0.1%. LL29 cells are plated at 1,500 cells/well in 80 μL/well F12 medium supplemented with 1% Fetal Bovine Serum. One hour after addition of the cells, TGF-β1 (Peprotech; 20 ng/mL) was added to the plates to induce fibrosis (ref. 1 and 2 above). Wells treated with TGF-β1 and containing DMSO were used as controls. Cells were incubated at 37° C. and 5% CO2 for 4 days. Following incubation for 4 days, SYTOX green nucleic acid stain (Life Technologies [Thermo Fisher Scientific]) was added to the wells at a final concentration of 1 μM and incubated at room temperature for 30 min. Cells were then fixed using 4% formaldehyde (Electron Microscopy Sciences), washed 3 times with PBS followed by blocking and permeabilization using 3% Bovine Serum Albumin (BSA; Sigma) and 0.3% Triton X-100 (Sigma) in PBS. Cells were then stained with antibody specific to α-smooth muscle actin (αSMA; Abcam) (ref. 1 and 2 above) in 3% Bovine Serum Albumin (BSA; Sigma) and 0.3% Triton X-100 (Sigma) in PBS, and incubated overnight at 4° C. Cells were then washed 3 times with PBS, followed by incubation with Alexa Flor-647 conjugated secondary antibody (Life Technologies [Thermo Fisher Scientific]) and DAPI at room temperature for 1 hour. Cells were then washed 3 times with PBS and plates were sealed for imaging. αSMA staining was imaged by excitation at 630 nm and emission at 665 nm and quantified using the Compartmental Analysis program on the CellInsight CX5 (Thermo Scientific). Dead or apoptotic cells were excluded from analysis based on positive SYTOX green staining. % of total cells positive for αSMA were counted in each well and normalized to the average of 11 wells treated with TGF-β1 on the same plate using Dotmatics' Studies Software. The normalized averages (fold change over untreated) of 3 replicate wells for each compound concentration were used to create dose-responses curves and EC50 values were calculated using non-linear regression curve fit in the Dotmatics' Studies Software. For EC50 of >10 μM, the percent inhibition at 10 μM is provided.

[2] = system: SW480 colon cancer cells; test: Cell viability assay (CellTiter-Blue) in SW480 cells; conditions: Homo sapiens, 96 h, four days; for pEC50: CellTiter-Blue, 10 μM to 0.0045 μM; for inhibition at 10 µM: read-out: percent inhibition at 10 μM (given for EC50 of >10 μM)
Protocol: Representative compounds were screened using the following assay procedure to assess the effect on cell viability as described below.
Each compound was dissolved in DMSO as a 10 mM stock and used to prepare compound source plates. Serial dilution (1:3, 8-point dose-response curves from 10 μM to 0.0045 μM) and compound transfer was performed using the ECHO 550 (Labcyte, Sunnyvale, Calif.) into 96-well clear bottom, black-walled plates (Corning-Costar).
Approximately 2×10^3 SW480 colon cancer cells were seeded into each well and allowed to incubate in the presence or absence of compound for four days at 37° C./5% CO2. Eight replicates of DMSO-treated cells served as controls and cells treated with compound were performed in duplicate.
After incubation, 20 μL of CellTiter-Blue (Promega) was added to each well allowed to incubate for approximately 3 hours. This reagent was a buffered solution which contains resazurin, metabolically active cells were able to reduce rezarurin (blue) into resorufin (pink) which was highly fluorescent. This measured fluorescence was used as a readout for cell viability.
After incubation, the plates were read at Ex 560 nm Em 590 nm (Cytation 3, BioTek). Dose-response curves were generated and EC50 concentration values were calculated using non-linear regression curve fit in the GraphPad Prism (San Diego, Calif.) or Dotmatics' Studies Software (Bishops Stortford, UK). For EC50 of >10 μM, the percent inhibition at 10 μM is provided.

[3] = system: IL-6 (THP-1 cells); test: IL-6 inhibition in LPS-stimulated THP-1 monocytes (HTRF); conditions: Homo sapiens, IL-6 HTRF; for pEC50: 500 ng/mL LPS, Table 6; for inhibition at 10 µM: LPS, Table 6, read-out: percent inhibition at 10 μM (given in parentheses for EC50 >10 μM)
Protocol: Human Monocyte Cell Culture: Human monocyte cell line (THP-1 cells; Catalog # TIB-202, ATCC, Manassas, Va.) were cultured in Roswell Park Memorial Institute (RPMI) 1640 Medium (Catalog #21870-100, Buffalo, N.Y.) with 1% L-glutamine, 1% HEPES, 1% Sodium Pyruvate, 2% Sodium Bicarbonate supplemented with 100 units/mL penicillin, 50 μg/mL streptomycin, 2-mercaptoethanol (0.05 mM) [basal medium] and 10% fetal bovine serum (Catalog #16140089, Life Technologies, Carlsbad, Calif.) at 37° C. and 5% CO2.
Compound Screening: THP-1 cells were cultured in basal media with 1% FBS for 24 hours before the start of the assay. Each compound was dissolved in DMSO as a 10 mM stock and used to prepare compound source plates. Serial dilution (1:3, 10-point dose-response curves starting from 10 μM) and compound transfer was performed using the ECHO 550 (Labcyte, Sunnyvale, Calif.) into 384-well white low volume assay plates (Greiner Bio-One) with appropriate DMSO backfill for a final DMSO concentration of 0.1%. THP-1 cells were plated at 5000 cells/well in the 384-well plates and incubated at 37° C. for 2 h. 500 ng/mL of LPS was added after 2 hours and cells were incubated for another 22 hours at 37° C. Plates were spun in a centrifuge for 1 minute at […] and a mixture of anti-IL6 XL665, and anti-IL6 Cryptate diluted in reconstitution buffer (Cisbio Inc.) was added to each well. Following incubation for 3 hrs at room temperature, Homogeneous Time-Resolved Fluorescence (HTRF) was measured using the Envision (Perkin Elmer) at 665 nm and […]. The ratio of fluorescence at 665 nm to 620 nm was used as a readout for IL6 quantification. All samples were processed in duplicate. Readings were normalized to DMSO treated cells and normalized activities were utilized for EC50 calculations using the dose-response log (inhibitor) vs. response-variable slope (four parameters) nonlinear regression feature available in GraphPad Prism 5.0 (or Dotmatics). For EC50 of >10 μM, the percent inhibition at 10 μM is provided.

## Fc1cccc(-c2cccc3[nH]c(-c4n[nH]c5ccc(-c6cncc(CN7CCC(F)(F)C7)c6)nc45)nc23)c1 [Compound 26, 5-(5-((3,3-Difluoropyrrolidin-1-yl)methyl)pyridin-3-yl)-3-(4-(3-fluorophenyl)-1H-benzo[d]imidazol-2-yl)-1H-pyrazolo[4,3-b]pyridine]
[1]
  pEC50: 5.78
[2]
  pEC50: 5.23
[3]
  pEC50: 5.29

## CC(C)(C)C(=O)Nc1cncc(-c2ccc3[nH]nc(-c4nc5c(-c6ccc(F)cc6)cccc5[nH]4)c3n2)c1 [Compound 36, N-(5-(3-(4-(4-Fluorophenyl)-1H-benzo[d]imidazol-2-yl)-1H-pyrazolo[4,3-b]pyridin-5-yl)pyridin-3-yl)pivalamide]
[1]
  inhibition at 10 µM: 33.6%
  pEC50: < 5.00
[2]
  pEC50: 5.07
[3]
  pEC50: < 5.00
  inhibition at 10 µM: 25.7%

## Fc1ccc(-c2cccc3[nH]c(-c4n[nH]c5ccc(-c6cncc(CN7CCCC7)c6)nc45)nc23)cc1 [Compound 42, 3-(4-(4-Fluorophenyl)-1H-benzo[d]imidazol-2-yl)-5-(5-(pyrrolidin-1-ylmethyl)pyridin-3-yl)-1H-pyrazolo[4,3-b]pyridine]
[1]
  pEC50: 5.45
[2]
  pEC50: 6.26
[3]
  pEC50: 6.41

## O=C(Nc1cncc(-c2ccc3[nH]nc(-c4nc5c(-c6ccc(F)cc6)cccc5[nH]4)c3n2)c1)C1CCC1 [Compound 49, N-(5-(3-(4-(4-Fluorophenyl)-1H-benzo[d]imidazol-2-yl)-1H-pyrazolo[4,3-b]pyridin-5-yl)pyridin-3-yl)cyclobutanecarboxamide]
[1]
  inhibition at 10 µM: 0%
  pEC50: < 5.00
[2]
  inhibition at 10 µM: 12.9%
  pEC50: < 5.00
[3]
  pEC50: < 5.00
  inhibition at 10 µM: 43.6%

## Fc1ccc(-c2cccc3[nH]c(-c4n[nH]c5ccc(-c6cncnc6)nc45)nc23)cc1 [Compound 55, 3-(4-(4-Fluorophenyl)-1H-benzo[d]imidazol-2-yl)-5-(pyrimidin-5-yl)-1H-pyrazolo[4,3-b]pyridine]
[1]
  pEC50: 5.51
[2]
  inhibition at 10 µM: 4.1%
  pEC50: < 5.00
[3]
  pEC50: < 5.00
  inhibition at 10 µM: 38.8%

## Nc1cncc(-c2ccc3[nH]nc(-c4nc5c(-c6ccccc6F)cccc5[nH]4)c3n2)c1 [Compound 59, 5-(3-(4-(2-Fluorophenyl)-1H-benzo[d]imidazol-2-yl)-1H-pyrazolo[4,3-b]pyridin-5-yl)pyridin-3-amine]
[1]
  pEC50: 5.86
[2]
  pEC50: 5.79
[3]
  pEC50: 6.31

## CC(C)C(=O)Nc1cncc(-c2ccc3[nH]nc(-c4nc5c(-c6ccccc6F)cccc5[nH]4)c3n2)c1 [Compound 65, N-(5-(3-(4-(2-fluorophenyl)-1H-benzo[d]imidazol-2-yl)-1H-pyrazolo[4,3-b]pyridin-5-yl)pyridin-3-yl)isobutyramide]
[1]
  pEC50: 5.30
[2]
  inhibition at 10 µM: 16.1%
  pEC50: < 5.00
[3]
  pEC50: < 5.00
  inhibition at 10 µM: 30.7%

## CC(C)(C)CC(=O)Nc1cncc(-c2ccc3[nH]nc(-c4nc5c(-c6ccccc6F)cccc5[nH]4)c3n2)c1 [Compound 72, N-(5-(3-(4-(2-Fluorophenyl)-1H-benzo[d]imidazol-2-yl)-1H-pyrazolo[4,3-b]pyridin-5-yl)pyridin-3-yl)-3,3-dimethylbutanamide]
[1]
  pEC50: 5.66
[2]
  inhibition at 10 µM: 2%
  pEC50: < 5.00
[3]
  pEC50: < 5.00
  inhibition at 10 µM: 14.1%

## O=C(Nc1cncc(-c2ccc3[nH]nc(-c4nc5c(-c6ccccc6F)cccc5[nH]4)c3n2)c1)C1CCCC1 [Compound 78, N-(5-(3-(4-(2-Fluorophenyl)-1H-benzo[d]imidazol-2-yl)-1H-pyrazolo[4,3-b]pyridin-5-yl)pyridin-3-yl)cyclopentanecarboxamide]
[1]
  pEC50: 5.60
[2]
  inhibition at 10 µM: 20%
  pEC50: < 5.00
[3]
  pEC50: < 5.00
  inhibition at 10 µM: 19.1%

## Fc1ccccc1-c1cccc2[nH]c(-c3n[nH]c4ccc(-c5cncc(CNCC6CCCC6)c5)nc34)nc12 [Compound 81, 1-Cyclopentyl-N-((5-(3-(4-(2-fluorophenyl)-1H-benzo[d]imidazol-2-yl)-1H-pyrazolo[4,3-b]pyridin-5-yl)pyridin-3-yl)methyl)methanamine]
[1]
  pEC50: 6.20
[2]
  pEC50: 5.94
[3]
  pEC50: 5.44

## c1cncc(-c2ccc3[nH]nc(-c4nc5c(-c6cccnc6)cccc5[nH]4)c3n2)c1 [Compound 88, 5-(Pyridin-3-yl)-3-(4-(pyridin-3-yl)-1H-benzo[d]imidazol-2-yl)-1H-pyrazolo [4,3-b]pyridine]
[1]
  inhibition at 10 µM: 0%
  pEC50: < 5.00
[2]
  pEC50: 5.17
[3]
  pEC50: < 5.00
  inhibition at 10 µM: 31.8%

## CC(C)C(=O)Nc1cncc(-c2ccc3[nH]nc(-c4nc5c(-c6cccnc6)cccc5[nH]4)c3n2)c1 [Compound 93, N-(5-(3-(4-(Pyridin-3-yl)-1H-benzo[d]imidazol-2-yl)-1H-pyrazolo[4,3-b]pyridin-5-yl)pyridin-3-yl)isobutyramide]
[1]
  inhibition at 10 µM: 0%
  pEC50: < 5.00
[2]
  inhibition at 10 µM: 29.9%
  pEC50: < 5.00
[3]
  pEC50: < 5.00
  inhibition at 10 µM: 42.5%
